According to PMC11817512, “In Slico Screening and In Vitro Identification of Hyperuricemia-Inhibiting Peptides from Trachurus japonicus” (Foods, 2025):
Where a SMILES comes first, the peptide text is derived from it. Where no end group is shown, it is not given here.

Legend:
XOD = target: T1, XOD (Bos taurus, UniProt P80457); assay: In vitro XOD inhibitory assay; assay type: biochemical; settings: XOD from milk, xanthine substrate, PBS pH 7.4, 37 °C, absorbance 295 nm, mean ± SD, n = 3; as restated in section 3.5.1; read-out: IC50 for XOD (three-decimal values)
T1 construct: Xanthione oxidase (XOD) from milk; purchased Solarbio Co., Ltd. (Beijing, China); host or cells: milk
T1 sequence (P80457 whole entry): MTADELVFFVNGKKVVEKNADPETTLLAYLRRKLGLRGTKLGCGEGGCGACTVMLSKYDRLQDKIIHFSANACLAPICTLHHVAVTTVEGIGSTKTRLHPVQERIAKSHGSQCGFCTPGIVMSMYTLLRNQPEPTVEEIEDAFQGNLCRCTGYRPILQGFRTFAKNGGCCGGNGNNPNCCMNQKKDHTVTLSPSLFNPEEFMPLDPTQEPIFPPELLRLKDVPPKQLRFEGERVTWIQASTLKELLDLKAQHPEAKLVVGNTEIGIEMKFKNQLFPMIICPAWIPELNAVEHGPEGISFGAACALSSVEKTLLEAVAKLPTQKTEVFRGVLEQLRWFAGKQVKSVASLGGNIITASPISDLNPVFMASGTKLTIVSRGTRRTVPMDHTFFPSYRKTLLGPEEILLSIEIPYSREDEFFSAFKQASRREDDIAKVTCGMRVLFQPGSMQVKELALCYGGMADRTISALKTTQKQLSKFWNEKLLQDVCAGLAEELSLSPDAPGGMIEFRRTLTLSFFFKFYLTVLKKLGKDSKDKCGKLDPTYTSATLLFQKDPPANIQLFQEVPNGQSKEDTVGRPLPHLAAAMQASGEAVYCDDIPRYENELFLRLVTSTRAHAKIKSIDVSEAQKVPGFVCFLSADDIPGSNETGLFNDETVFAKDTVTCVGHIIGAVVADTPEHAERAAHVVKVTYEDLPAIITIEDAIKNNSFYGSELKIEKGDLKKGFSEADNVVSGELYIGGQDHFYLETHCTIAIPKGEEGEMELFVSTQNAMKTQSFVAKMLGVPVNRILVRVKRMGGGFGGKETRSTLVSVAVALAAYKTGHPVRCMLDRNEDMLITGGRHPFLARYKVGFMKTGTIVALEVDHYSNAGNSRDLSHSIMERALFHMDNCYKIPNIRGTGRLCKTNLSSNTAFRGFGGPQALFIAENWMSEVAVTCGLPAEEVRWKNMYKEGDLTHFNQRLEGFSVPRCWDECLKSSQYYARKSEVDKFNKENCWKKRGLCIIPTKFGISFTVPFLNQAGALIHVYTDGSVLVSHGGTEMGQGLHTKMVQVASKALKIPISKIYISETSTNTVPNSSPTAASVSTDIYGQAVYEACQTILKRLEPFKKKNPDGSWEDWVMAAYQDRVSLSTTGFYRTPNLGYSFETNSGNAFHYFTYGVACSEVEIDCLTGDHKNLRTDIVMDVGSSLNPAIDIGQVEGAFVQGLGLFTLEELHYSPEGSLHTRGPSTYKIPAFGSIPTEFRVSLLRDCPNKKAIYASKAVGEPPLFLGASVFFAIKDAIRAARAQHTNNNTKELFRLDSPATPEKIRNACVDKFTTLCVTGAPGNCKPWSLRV
Description: Xanthione oxidase (XOD) from milk, 1,1-Diphenyl-2-picrylhydrazyl (DPPH), 2,2′-azino-bis(3-ethylbenzothiazoline-6-sulfonic acid) (ABTS), a xanthine oxidase assay kit, and glutathione (GSH) were purchased from Solarbio Co., Ltd. (Beijing, China). Allopurinol was purchased from Aladdin Co. Ltd. (Shanghai, China). UA was purchased from Sigma-Aldrich Co. LLC. (St. Louis, MO, USA). A Cell Counting Kit-8 (CCK-8) was obtained from APExBIO Technology LLC. (Houston, TX, USA). Other chemicals were provided by Sinopharm Chemical Reagent Co., Ltd. (Shanghai, China) and were of analytical grade.
The in vitro XOD inhibitory assay was carried out by adopting the approach of Zhao et al., with minor alterations. Xanthine and XOD were, respectively, dissolved in phosphate-buffered solution (PBS, with a pH value of 7.4) at concentrations of 1.5 mM and 0.1 U/mL. Peptides of different concentrations (10, 20, 40, 80, and 160 mM) were dissolved in the PBS. A total of 120 μL of the sample solution, 150 μL of PBS, and 100 μL of XOD solution were combined and allowed to react thoroughly at 37 °C for 15 min. Subsequently, 120 μL of xanthine solution was added and the reaction was continued for an additional 20 min. Eventually, 150 μL of 1 M HCl was added to halt further enzymatic activity, and the absorbance was determined at 295 nm by means of an ultraviolet spectrophotometer (TU-1810PC, Purkinje, Beijing, China). The XOD inhibition rate was calculated according to Equation (1).XOD inhibition rate (%) = [1 − (A1 − A3)/(A2 − A4)] × 100%(1) where A1 is the absorbance after the mixed reaction of the inhibitor, XOD, and xanthine; A2 is the absorbance after the reaction of xanthine and XOD without adding the inhibitor; A3 is the absorbance of the sample and xanthine without adding XOD; and A4 is the absorbance of the xanthine solution without adding XOD and the inhibitor. […]

HK-2 cells [1] = tested on: HK-2 cells
Description: HK-2 cells were procured from the National Collection of Authenticated Cell Cultures (SCSP-511, Shanghai, China). The cytotoxicity of the peptides was appraised through a CCK-8 assay in line with the methodology of Gan, Cao, Cai, Xiang, Li, and Luan [30]. HK-2 cells were inoculated in 96-well plates (3 × 10^4 cells per well) and cultivated in Dulbecco’s Modified Eagle Medium (DMEM; provided by Life Technologies Corp., New York, NY, USA) supplemented with 10% fetal bovine serum (FBS; from Life Technologies Corp., New York, NY, USA) at 37 °C in an atmosphere containing 5% CO2 for a duration of 24 h. Peptides were introduced into the wells, and, following a 24 h incubation period, 10 μL of CCK-8 reagent was added to each well and incubated for 1 h. The absorbance was gauged at 450 nm using a microplate reader (Spark, Tecan, Austria).

HK-2 cells [2] = assay: Uric acid (UA) level in hyperuricemia HK-2 cell model; assay type: cell-based; settings: 24 h, then 2.5 mM adenosine 30 h and XOD 12 h, n = 3
Protocol: The cell modeling process was carried out by following the method of Mao et al., with certain modifications. HK-2 cells were cultured in DMEM supplemented with 10% FBS at 37 °C under a 5% CO2 environment for 24 h. […] The control group and the model group were also cultured in the medium for the same period of time. Subsequently, the experimental group, the positive group, and the model group were incubated with 2.5 mM adenosine for 30 h and then further incubated with XOD (at a concentration of 0.005 U/mg) for 12 h. The content and concentration of UA in the cell supernatant were measured using a XOD assay kit.

GLUT9 = GLUT9 urate transport / protein expression at the cellular level (Western blot); assay type: cell-based; settings: HK-2 cells
Description: (§1) The protein expressions of URAT1 and GLUT9 within cells were detected by means of Western blot, in accordance with the method of Mao, Jiang, and Mao [32]. The primary antibodies were as follows: URAT1 (1:1000; Cat#14937-1AP; Proteintech, Wuhan, China), GLUT9 (1:1000; Cat#ab223470; Abcam, Shanghai, China), and β-actin (1:5000; Cat#ab6276; Abcam). The secondary antibodies were as follows: Goat Anti-Mouse IgG H&L (HRP) (Cat#ab205719; Abcam) and Goat Anti-Rabbit IgG H&L (HRP) (Cat#ab6721; Abcam). The protein levels were quantitatively gauged using ImageJ software (1.8.0.112).

URAT1 = URAT1 urate transport / protein expression at the cellular level (Western blot); assay type: cell-based; settings: HK-2 cells
Description: as §1

Molecule | IC50 (XOD) [mM] | cell viability of HK-2 at higher doses (HK-2 cells [1]) | reduction of UA levels in HK-2 cells, allopurinol (HK-2 cells [2]; 0.1 mM allopurinol) [%] | reduction of urate transport by GLUT9 in cells (GLUT9) | reduction of urate transport by URAT1 in cells (URAT1) | reduction of UA levels in HK-2 cells, peptides (HK-2 cells [2]; peptide 4 mM (section 3.4)) [%]
C[C@H](N)C(=O)NCC(=O)N[C@@H](Cc1ccccc1)C(=O)O [AGF] (H-Ala-Gly-Phe-OH) | 48.6 ± 9.95 | slight reductions in cell viability | – | – | – | –
NC(=O)CC[C@H](N)C(=O)N1CCC[C@H]1C(=O)N[C@@H](CO)C(=O)N[C@@H](Cc1ccccc1)C(=O)O [QPSF] (H-QPSF-OH) | 38.4 ± 7.25 | slight reductions in cell viability | – | – | – | –
Oc1ncnc2[nH]ncc12 [allopurinol, reference compound] | – | – | 52.25 | – | – | –
N[C@@H](CC(=O)O)C(=O)N[C@@H](Cc1ccccc1)C(=O)O [DF] (H-Asp-Phe-OH; N-terminus and C-terminus assumed) | – | slight reductions in cell viability | – | can effectively diminish the transport of urate by GLUT9 within cells | can curtail the transport of urate by URAT1 in cells | 45.57
AGDDAPR [AGDDAPR] | 66 ± 10.9 | slight reductions in cell viability | – | – | – | –
